# US10392391B2 (Vertex Pharmaceuticals Incorporated, priority 2012, dated 2019)
# Read-outs that look alike come from different tables or passages of the source.
# Legend:
# [1] = molecular target: ATR kinase, in the presence of partner proteins ATRIP, CLK2 and TopBP1 (Homo sapiens (Human), UniProt Q13535); assay: ATR-complex inhibition assay (radioactive-phosphate incorporation); assay type: biochemical; settings: Ki(app); 4 nM full-length ATR, 40 nM ATRIP, 40 nM CLK2, 600 nM TopBP1; 10 μM ATP; 25° C.
# Chain of ATR kinase, in the presence of partner proteins ATRIP, CLK2 and TopBP1 (Q13535 whole entry): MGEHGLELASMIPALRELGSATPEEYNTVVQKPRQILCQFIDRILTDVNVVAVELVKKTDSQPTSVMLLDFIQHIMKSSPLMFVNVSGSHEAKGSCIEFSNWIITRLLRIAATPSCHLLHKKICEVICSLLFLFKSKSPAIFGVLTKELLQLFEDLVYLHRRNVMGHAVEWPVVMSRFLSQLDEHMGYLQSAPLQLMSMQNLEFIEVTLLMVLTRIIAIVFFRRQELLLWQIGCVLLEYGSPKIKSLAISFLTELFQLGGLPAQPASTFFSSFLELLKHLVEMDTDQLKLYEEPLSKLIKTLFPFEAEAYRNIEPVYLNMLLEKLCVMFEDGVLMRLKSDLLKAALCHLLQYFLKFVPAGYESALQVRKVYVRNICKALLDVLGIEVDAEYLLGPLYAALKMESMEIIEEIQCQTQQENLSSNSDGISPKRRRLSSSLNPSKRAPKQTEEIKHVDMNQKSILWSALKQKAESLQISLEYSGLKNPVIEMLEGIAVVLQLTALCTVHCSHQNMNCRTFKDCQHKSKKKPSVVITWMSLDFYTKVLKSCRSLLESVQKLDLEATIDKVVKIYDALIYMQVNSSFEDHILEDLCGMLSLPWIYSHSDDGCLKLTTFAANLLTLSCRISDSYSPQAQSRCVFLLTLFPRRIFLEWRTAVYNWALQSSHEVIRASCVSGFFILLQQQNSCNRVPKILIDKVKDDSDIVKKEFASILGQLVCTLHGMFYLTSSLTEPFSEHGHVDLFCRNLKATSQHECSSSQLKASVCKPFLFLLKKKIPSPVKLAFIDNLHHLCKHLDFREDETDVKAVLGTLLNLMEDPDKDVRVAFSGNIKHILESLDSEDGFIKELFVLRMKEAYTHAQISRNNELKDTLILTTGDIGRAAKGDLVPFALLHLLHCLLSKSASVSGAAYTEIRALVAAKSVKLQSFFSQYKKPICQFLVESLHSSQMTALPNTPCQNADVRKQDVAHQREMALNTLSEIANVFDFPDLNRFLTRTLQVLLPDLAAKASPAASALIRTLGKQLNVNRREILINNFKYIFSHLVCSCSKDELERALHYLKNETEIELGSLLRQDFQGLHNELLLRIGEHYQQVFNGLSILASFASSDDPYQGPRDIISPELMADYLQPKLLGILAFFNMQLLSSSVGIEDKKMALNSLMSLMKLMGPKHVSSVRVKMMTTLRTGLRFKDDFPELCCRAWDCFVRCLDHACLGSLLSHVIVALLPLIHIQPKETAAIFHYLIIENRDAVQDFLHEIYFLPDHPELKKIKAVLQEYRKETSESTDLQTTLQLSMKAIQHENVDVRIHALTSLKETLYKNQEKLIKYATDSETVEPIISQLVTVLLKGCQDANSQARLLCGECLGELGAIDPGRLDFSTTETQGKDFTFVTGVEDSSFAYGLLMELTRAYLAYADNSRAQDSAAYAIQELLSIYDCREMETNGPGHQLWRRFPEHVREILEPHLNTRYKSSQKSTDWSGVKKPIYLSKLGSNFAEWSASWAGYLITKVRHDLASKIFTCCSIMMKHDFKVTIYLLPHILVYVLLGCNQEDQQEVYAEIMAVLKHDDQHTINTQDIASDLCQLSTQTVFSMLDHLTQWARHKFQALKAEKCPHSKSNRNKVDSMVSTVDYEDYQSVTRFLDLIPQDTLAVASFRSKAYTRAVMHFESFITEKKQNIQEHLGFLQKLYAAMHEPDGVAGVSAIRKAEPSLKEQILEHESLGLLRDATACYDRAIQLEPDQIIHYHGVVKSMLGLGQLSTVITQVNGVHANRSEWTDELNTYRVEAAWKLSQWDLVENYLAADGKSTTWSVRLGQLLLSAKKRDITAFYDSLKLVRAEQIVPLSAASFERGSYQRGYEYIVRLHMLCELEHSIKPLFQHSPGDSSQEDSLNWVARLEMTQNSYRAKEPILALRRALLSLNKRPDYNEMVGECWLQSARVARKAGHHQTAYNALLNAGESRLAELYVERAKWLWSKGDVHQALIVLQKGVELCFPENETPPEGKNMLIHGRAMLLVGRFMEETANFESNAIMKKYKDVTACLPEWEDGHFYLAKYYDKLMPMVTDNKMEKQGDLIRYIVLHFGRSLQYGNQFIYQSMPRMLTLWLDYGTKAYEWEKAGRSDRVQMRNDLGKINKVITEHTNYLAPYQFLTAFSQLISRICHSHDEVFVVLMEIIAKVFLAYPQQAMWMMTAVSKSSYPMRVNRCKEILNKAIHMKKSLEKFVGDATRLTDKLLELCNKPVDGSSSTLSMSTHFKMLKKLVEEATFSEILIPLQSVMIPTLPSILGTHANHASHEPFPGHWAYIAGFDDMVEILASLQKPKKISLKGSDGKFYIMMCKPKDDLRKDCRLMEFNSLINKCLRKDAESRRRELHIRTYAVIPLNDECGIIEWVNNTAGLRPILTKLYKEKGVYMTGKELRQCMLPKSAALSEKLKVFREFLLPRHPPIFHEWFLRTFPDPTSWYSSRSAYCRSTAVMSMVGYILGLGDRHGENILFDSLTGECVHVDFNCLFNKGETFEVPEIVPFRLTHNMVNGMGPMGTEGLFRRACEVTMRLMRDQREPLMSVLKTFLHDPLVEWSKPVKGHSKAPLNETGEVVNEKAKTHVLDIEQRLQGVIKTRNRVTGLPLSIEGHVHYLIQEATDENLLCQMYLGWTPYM
# Chain of ATR kinase, in the presence of partner proteins ATRIP, CLK2 and TopBP1 (Q8WXE1 whole entry partner): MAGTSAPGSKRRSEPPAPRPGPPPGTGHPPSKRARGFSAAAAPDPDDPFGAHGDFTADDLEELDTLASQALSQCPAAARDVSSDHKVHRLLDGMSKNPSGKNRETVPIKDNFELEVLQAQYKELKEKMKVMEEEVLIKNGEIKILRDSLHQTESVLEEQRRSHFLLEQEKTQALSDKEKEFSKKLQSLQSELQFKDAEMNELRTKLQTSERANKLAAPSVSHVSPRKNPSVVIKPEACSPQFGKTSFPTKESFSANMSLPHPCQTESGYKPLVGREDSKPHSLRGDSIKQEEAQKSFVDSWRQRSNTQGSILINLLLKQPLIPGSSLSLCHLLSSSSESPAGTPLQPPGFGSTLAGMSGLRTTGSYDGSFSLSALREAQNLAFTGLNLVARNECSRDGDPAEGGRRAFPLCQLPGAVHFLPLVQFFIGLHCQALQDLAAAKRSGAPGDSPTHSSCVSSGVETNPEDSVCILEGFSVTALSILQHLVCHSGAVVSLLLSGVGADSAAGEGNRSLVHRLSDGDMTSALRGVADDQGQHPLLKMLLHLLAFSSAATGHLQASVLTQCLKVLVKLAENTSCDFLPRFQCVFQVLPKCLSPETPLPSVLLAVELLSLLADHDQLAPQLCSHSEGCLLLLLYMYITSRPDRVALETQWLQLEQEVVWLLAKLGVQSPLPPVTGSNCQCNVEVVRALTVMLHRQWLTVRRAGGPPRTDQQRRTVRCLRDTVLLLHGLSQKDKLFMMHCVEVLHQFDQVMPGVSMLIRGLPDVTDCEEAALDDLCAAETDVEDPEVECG
# Protocol: Compounds were screened for their ability to inhibit ATR kinase, in the presence of partner proteins ATRIP, CLK2 and TopBP1, using a radioactive-phosphate incorporation assay. Assays were carried out in a mixture of 50 mM Tris/HCl (pH 7.5), 10 mM MgCl2 and 1 mM DTT. Final substrate concentrations were 10 μM [g-33P]ATP (3.5 μCi 33P ATP/nmol ATP, Perkin Elmer, Massachusetts, USA) and 800 μM target peptide ([…]) (SEQ ID NO: 1); Isca Biochemicals, Cambridgeshire, UK).
# Assays were carried out at 25° C. in the presence of 4 nM full-length ATR, 40 nM full-length ATRIP, 40 nM full-length CLK2 and 600 nM TopBP1 (A891-S1105). An enzyme stock buffer solution was prepared containing all of the reagents listed above, with the exception of target peptide, ATP and the test compound of interest. This enzyme stock was pre-incubated for 30 minutes at 25° C. 8.5 μL of the enzyme stock solution was placed in a 96-well plate followed by addition of 5 μl of target peptide and 2 μL of DMSO stock containing serial dilutions of the test compound (typically starting from a final concentration of 1.5 μM with 2.5-fold serial dilutions) in duplicate (final DMSO concentration 7%). The plate was pre-incubated for 10 minutes at 25° C. and the reaction initiated by addition of 15 μL [g-33P]ATP (final concentration 10 μM).
# The reaction was stopped after […] by the addition of 30 μL 0.3 M phosphoric acid containing 2 mM ATP. A phosphocellulose filter 96-well plate (Multiscreen HTS MAPHNOB50, Merck-Millipore, Massachusetts, USA) was pretreated with 100 μL 0.1 M phosphoric acid prior to the addition of 45 μL of the stopped assay mixture. The plate was washed with 5×200 μL 0.1 M phosphoric acid. After drying, 50 μL Optiphase ‘SuperMix’ liquid scintillation cocktail (Perkin Elmer, Massachusetts, USA) was added to the well prior to scintillation counting (Wallac 1450 Microbeta Liquid Scintillation Counter, Perkin Elmer, Massachusetts, USA).
# After removing mean background values for all of the data points, Ki(app) data were calculated from non-linear regression analysis of the initial rate data using the Prism software package (GraphPad Prism version 6.0c for Macintosh, GraphPad Software Inc., San Diego, USA).
# Compounds with a Cisplatin sensitization value of <0.02 μM are marked with “+++.” Compounds with a Ki value >0.02 μM but <0.2 μM are marked with “++.” Compounds with a Ki value >0.2 μM but <5 μM are marked with “+.”
# [2] = molecular target: ATR kinase (full-length ATR) (Homo sapiens (Human), UniProt Q13535); assay: ATR inhibition assay (radioactive-phosphate incorporation); assay type: biochemical
# Chain of ATR kinase (full-length ATR) (Q13535 whole entry): as the sequence (Q13535 whole entry) above
# Summary of the method: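 Radiometric 33P incorporation by 5 nM full-length ATR into 800 μM target peptide with 10 μM [γ-33P]ATP, in 50 mM Tris/HCl pH 7.5, 10 mM MgCl2, 1 mM DTT, 7% DMSO, 25° C. Compound pre-incubated 10 minutes; reaction stopped after 24 hours, captured on phosphocellulose. Ki(app) from non-linear regression of initial rates.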
# [3] = Ki(app), 5 nM full-length ATR, 10 μM ATP, 25° C.
Ki [1],"Ki [2, 3]",Ki [2],SMILES
< 20 nM,10 to 1000 nM,,"CN1CCN(C(=O)c2ccc(-c3ccncc3NC(=O)c3c(N)nn4cc(F)cnc34)cc2)CC1 [I-C-25, 2-amino-6-fluoro-N-(4-(4-(4-methylpiperazine-1-carbonyl)phenyl)pyridin-3-yl)pyrazolo[1,5-a]pyrimidine-3-carboxamide]"
< 20 nM,10 to 1000 nM,,"Nc1nn2cc(F)cnc2c1C(=O)Nc1cncc(F)c1N1CCN2C(=O)CC[C@@H]2C1 [I-N-186, (R)-2-amino-6-fluoro-N-(5-fluoro-4-(6-oxohexahydropyrrolo[1,2-a]pyrazin-2(1H)-yl)pyridin-3-yl)pyrazolo[1,5-a]pyrimidine-3-carboxamide]"
< 20 nM,10 to 1000 nM,,"Nc1nn2cc(F)cnc2c1C(=O)Nc1cncc(F)c1N1CCN(C2COC2)CC1 [I-N-13, 2-amino-6-fluoro-N-(5-fluoro-4-(4-(oxetan-3-yl)piperazin-1-yl)pyridin-3-yl)pyrazolo[1,5-a]pyrimidine-3-carboxamide]"
< 20 nM,10 to 1000 nM,,"Cn1cncc1-c1c(F)cncc1NC(=O)c1c(N)nn2cc(F)cnc12 [I-C-79, 2-amino-6-fluoro-N-(5-fluoro-4-(1-methyl-1H-imidazol-5-yl)pyridin-3-yl)pyrazolo[1,5-a]pyrimidine-3-carboxamide]"
< 20 nM,,10 to 1000 nM,"Nc1nn2cc(F)cnc2c1C(=O)Nc1cncc(F)c1N1CCC(C(=O)N2CCN3CCC2CC3)CC1 [I-G-7, N-(4-(4-(1,4-diazabicyclo[3.2.2]nonane-4-carbonyl)piperidin-1-yl)-5-fluoropyridin-3-yl)-2-amino-6-fluoropyrazolo[1,5-a]pyrimidine-3-carboxamide]"
< 20 nM,10 to 1000 nM,,"Nc1nn2cc(F)cnc2c1C(=O)Nc1cncc(F)c1N1CCNCC1 [I-N-118, 2-amino-6-fluoro-N-(5-fluoro-4-(piperazin-1-yl)pyridin-3-yl)pyrazolo[1,5-a]pyrimidine-3-carboxamide]"
< 20 nM,10 to 1000 nM,,"Nc1nn2cc(F)cnc2c1C(=O)Nc1cnccc1N1CCN(C2COC2)CC1 [I-N-1, 2-amino-6-fluoro-N-(4-(4-(oxetan-3-yl)piperazin-1-yl)pyridin-3-yl)pyrazolo[1,5-a]pyrimidine-3-carboxamide]"
< 20 nM,10 to 1000 nM,,"Nc1nn2cc(F)cnc2c1C(=O)Nc1cncc(F)c1N1CCC(C(=O)N2CCNCC2)CC1 [I-G-12, 2-amino-6-fluoro-N-(5-fluoro-4-(4-(piperazine-1-carbonyl)piperidin-1-yl)pyridin-3-yl)pyrazolo[1,5-a]pyrimidine-3-carboxamide]"
< 20 nM,10 to 1000 nM,,"CN1CCN(C(=O)c2ccc(-c3c(F)cncc3NC(=O)c3c(N)nn4cc(F)cnc34)cc2)CC1 [I-C-43, 2-amino-6-fluoro-N-(5-fluoro-4-(4-(4-methylpiperazine-1-carbonyl)phenyl)pyridin-3-yl)pyrazolo[1,5-a]pyrimidine-3-carboxamide]"
< 20 nM,10 to 1000 nM,,"Nc1nn2cc(Cl)cnc2c1C(=O)Nc1cnccc1N1CCN(C2COC2)CC1 [I-N-58, 2-amino-6-chloro-N-(4-(4-(oxetan-3-yl)piperazin-1-yl)pyridin-3-yl)pyrazolo[1,5-a]pyrimidine-3-carboxamide]"
< 20 nM,10 to 1000 nM,,"CN1CCN(C(=O)C2CCN(c3c(F)cncc3NC(=O)c3c(N)nn4cc(F)cnc34)CC2)CC1 [I-G-4, 2-amino-6-fluoro-N-(5-fluoro-4-(4-(4-methylpiperazine-1-carbonyl)piperidin-1-yl)pyridin-3-yl)pyrazolo[1,5-a]pyrimidine-3-carboxamide]"
< 20 nM,10 to 1000 nM,,"CN1CCN(S(=O)(=O)C2CCN(c3c(F)cncc3NC(=O)c3c(N)nn4cc(F)cnc34)CC2)CC1 [I-N-166, 2-amino-6-fluoro-N-(5-fluoro-4-(4-((4-methylpiperazin-1-yl)sulfonyl)piperidin-1-yl)pyridin-3-yl)pyrazolo[1,5-a]pyrimidine-3-carboxamide]"
